Test results from publication PMC6441019, “Prospective discovery of small molecule enhancers of an E3 ligase-substrate interaction” (Nature Communications, 2019).

Legend:
[1] = biological target: T1, Ser33/S37A β-catenin peptide binding to β-TrCP (Homo sapiens, UniProt P35222+Q9Y297, S37A); test: TR-FRET peptide binding assay, unphosphorylated Ser33/S37A peptide
T1 construct: titrating BODIPY-FL-labeled β-catenin peptides (residues 17-48) against 300 pM β-TrCP; 6xHis-SMT3 (N, cleaved yes); made in house; host or cells: E. coli (co-expressed with BirA)
T1 sequence (Q9Y297 1-569 isoform Q9Y297-2, stated change not applied): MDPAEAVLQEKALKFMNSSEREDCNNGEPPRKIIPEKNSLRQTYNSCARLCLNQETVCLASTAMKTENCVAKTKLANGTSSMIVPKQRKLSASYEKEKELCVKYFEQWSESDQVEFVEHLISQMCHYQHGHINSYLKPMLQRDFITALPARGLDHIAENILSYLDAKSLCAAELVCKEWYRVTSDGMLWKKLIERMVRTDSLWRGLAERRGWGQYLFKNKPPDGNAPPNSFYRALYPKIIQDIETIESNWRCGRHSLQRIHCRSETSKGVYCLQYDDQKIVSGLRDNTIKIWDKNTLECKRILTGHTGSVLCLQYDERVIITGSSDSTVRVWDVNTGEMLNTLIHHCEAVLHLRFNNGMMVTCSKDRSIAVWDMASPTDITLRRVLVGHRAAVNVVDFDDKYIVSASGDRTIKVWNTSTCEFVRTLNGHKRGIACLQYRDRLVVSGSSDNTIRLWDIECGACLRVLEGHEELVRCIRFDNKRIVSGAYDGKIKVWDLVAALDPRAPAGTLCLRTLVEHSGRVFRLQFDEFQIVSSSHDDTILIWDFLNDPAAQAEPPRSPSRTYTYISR
T1 sequence (P63208 whole entry partner, the tested form may be a part): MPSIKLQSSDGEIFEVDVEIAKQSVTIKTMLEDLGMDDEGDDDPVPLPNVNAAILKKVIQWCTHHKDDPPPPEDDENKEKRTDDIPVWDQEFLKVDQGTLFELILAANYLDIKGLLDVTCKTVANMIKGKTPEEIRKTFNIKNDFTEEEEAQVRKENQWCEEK
T1 sequence (P35222 17-48 S37A limits assumed): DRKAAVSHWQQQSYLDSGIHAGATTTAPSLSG
Procedure: (§1) Compounds were incubated in a 20 μl reaction volume with 300 pM biotinylated β-TrCP/Skp1 preincubated with 1.2 nM terbium-coupled streptavidin (Cisbio) and BODIPY-FL labeled β-catenin peptides (see figure legends for peptide details) in a white 384-well microplate (Perkin Elmer ProxiPlate), using a PBS buffer containing 0.01% Triton X-100 and 2 mM DTT with 2% final DMSO. […] Following 1-h incubation, plates were read for TR-FRET signal after excitation at 320 nm and read at 520 and 620 nm using an EnVision plate reader (Perkin Elmer). TR-FRET signal was calculated using a 520/620 nm ratio. Binding and enhancement data were fit to a standard Hill equation (Y = Bmin + (Bmax − Bmin)(X^h)/(X^h + EC50^h)) in Prism (GraphPad). Errors are standard error of the fit.

[2] = biological target: T2, pSer33/S37A β-catenin peptide ubiquitylation by SCFβ-TrCP (Homo sapiens, UniProt P35222+Q9Y297, S37A); test: In vitro ubiquitylation of pSer33/S37A β-catenin peptide; format: biochemical; conditions: forms long ubiquitin chains
T2 construct: fluorescently-labeled β-catenin peptide (residues 17–60; as indicated) was ubiquitylated; 6xHis-SMT3 (N, cleaved yes); made in house; host or cells: E. coli (β-TrCP1/Skp1); E. coli or SF9 (Cul1-Rbx1)
Procedure: (§2) Four micromolar of fluorescently-labeled β-catenin peptide (residues 17–60) were ubiquitylated in a buffer containing 25 mM Tris Cl (pH 7.5), 50 mM NaCl, 5 mM MgCl2, 2 mM ATP, and 1 mM DTT at room temperature in the presence of 62.5 μM Ubiquitin, 125 nM Ube1, 1.75 μM Cdc34A, and 100 nM neddylated SCF^β-TrCP in the presence or absence of compound (as indicated). Typically, individual reaction mixes with either Ubiquitin, Ube1 and Cdc34A or β-catenin, SCF^β-TrCP and compound were preincubated and subsequently mixed to initiate β-catenin ubiquitylation. Reactions were quenched by SDS loading buffer, resolved by SDS-PAGE and imaged for fluorescence. For full length β-catenin protein ubiquitylation 400 nM β-catenin and 400 nM SCF^β-TrCP were used instead.

[3] = biological target: T3, S33E/S37A β-catenin:β-TrCP interaction (Homo sapiens, UniProt P35222+Q9Y297, S33E/S37A); test: Lysate pulldown with recombinant β-catenin (HEK293T lysate); conditions: anti-myc pulldown
T3 construct: a ternary complex with the full-length S33E/S37A β-catenin and β-TrCP in cells; evaluated for their ability to pull down endogenous β-TrCP; expressed in transfected cells; host or cells: HEK293T (transient, FuGeneHD); β-TrCP endogenous
Procedure: Lysate pulldown with recombinant β-catenin: HEK293T cells were lysed by freeze thaw in lysis buffer (1× PBS, 2 mM DTT, 0.01% Triton X-100, proteases inhibitors (Sigma, P2714 and 11836170001), phosphatase inhibitors (Sigma, P5726 and P0044), 5 nM Calyculin A (Sigma, C5552)) at 85 µL of buffer to 1 × 10^6 cells. Lysates were clarified by centrifugation at 20,000 × g for 20 min at 4 °C and the supernatant was collected for subsequent use. Purified Myc/FLAG-tagged wild-type β-catenin protein at 2 µM was pretreated with 1 µM GSK3β (EMD Millipore, 14-306), 50 nM Axin (Enzo Life Sciences, ENZ-PRT130-0020), 200 nM CK1α (Life Technologies, PV3850), and 2 mM ATP at 30 °C for 60 min. This phosphorylated β-catenin, unphosphorylated WT β-catenin, or S33E/S37A β-catenin were each diluted into lysate to 100 nM, at the indicated compound concentrations, at a final DMSO concentration of 1% DMSO. Thirty-five microliters of these mixtures were incubated over 10 µL of anti-c-myc magnetic beads (Pierce, Catalog #PI88842), with rotation, at room temperature for 2 h. Beads were then pelleted, washed twice with 200 µL cold wash buffer (1×PBS, 2 mM DTT, 0.01% TX-100, 1% DMSO) containing compound at the same incubation concentration. Washed beads were resuspended in 30 µL SDS loading dye and analyzed by western analysis.

[4] = biological target: T4, full-length Ser33/S37A β-catenin protein ubiquitylation by SCFβ-TrCP (Homo sapiens, UniProt P35222+Q9Y297, S37A); test: In vitro ubiquitylation of full-length Ser33/S37A β-catenin protein; format: biochemical
T4 construct: 400 nM purified full-length S37A mutant β-catenin protein was ubiquitylated; 6xHis-SMT3 (N, cleaved yes); host or cells: HEK293T (β-catenin); E. coli (β-TrCP1/Skp1); E. coli or SF9 (Cul1-Rbx1)
T4 sequence (Q9Y297 1-569 isoform Q9Y297-2, stated change not applied): as the sequence (Q9Y297 1-569 isoform Q9Y297-2, stated change not applied) above
T4 sequence (P63208 whole entry partner): as the sequence (P63208 whole entry partner, the tested form may be a part) above
T4 sequence (Q13616 whole entry partner): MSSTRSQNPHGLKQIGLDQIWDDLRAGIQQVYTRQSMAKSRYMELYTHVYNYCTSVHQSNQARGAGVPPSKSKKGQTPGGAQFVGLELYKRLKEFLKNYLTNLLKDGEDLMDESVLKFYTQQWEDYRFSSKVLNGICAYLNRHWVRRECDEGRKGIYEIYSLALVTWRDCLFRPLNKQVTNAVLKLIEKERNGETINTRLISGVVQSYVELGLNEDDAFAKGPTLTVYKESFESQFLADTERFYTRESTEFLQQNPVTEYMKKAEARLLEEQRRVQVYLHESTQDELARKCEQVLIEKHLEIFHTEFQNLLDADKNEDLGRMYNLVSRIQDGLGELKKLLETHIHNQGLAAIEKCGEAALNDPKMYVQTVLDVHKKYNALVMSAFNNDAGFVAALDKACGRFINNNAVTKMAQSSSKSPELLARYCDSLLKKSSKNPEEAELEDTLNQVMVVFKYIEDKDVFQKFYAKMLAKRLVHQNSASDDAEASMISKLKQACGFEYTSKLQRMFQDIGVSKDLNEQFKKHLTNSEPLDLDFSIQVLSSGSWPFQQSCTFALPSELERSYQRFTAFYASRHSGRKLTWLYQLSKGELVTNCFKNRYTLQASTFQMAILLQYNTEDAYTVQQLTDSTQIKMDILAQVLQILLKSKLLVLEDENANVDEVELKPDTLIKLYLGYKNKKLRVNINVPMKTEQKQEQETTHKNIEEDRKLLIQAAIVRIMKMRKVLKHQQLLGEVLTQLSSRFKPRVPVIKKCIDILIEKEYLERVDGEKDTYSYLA
T4 sequence (P62877 whole entry partner): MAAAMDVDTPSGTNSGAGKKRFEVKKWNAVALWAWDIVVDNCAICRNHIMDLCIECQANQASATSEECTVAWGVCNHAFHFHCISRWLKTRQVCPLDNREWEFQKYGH
T4 sequence (Q15843 1-76 partner limits assumed): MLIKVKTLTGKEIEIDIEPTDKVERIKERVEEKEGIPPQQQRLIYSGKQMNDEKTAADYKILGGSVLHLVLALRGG
T4 sequence (P35222 whole entry S37A): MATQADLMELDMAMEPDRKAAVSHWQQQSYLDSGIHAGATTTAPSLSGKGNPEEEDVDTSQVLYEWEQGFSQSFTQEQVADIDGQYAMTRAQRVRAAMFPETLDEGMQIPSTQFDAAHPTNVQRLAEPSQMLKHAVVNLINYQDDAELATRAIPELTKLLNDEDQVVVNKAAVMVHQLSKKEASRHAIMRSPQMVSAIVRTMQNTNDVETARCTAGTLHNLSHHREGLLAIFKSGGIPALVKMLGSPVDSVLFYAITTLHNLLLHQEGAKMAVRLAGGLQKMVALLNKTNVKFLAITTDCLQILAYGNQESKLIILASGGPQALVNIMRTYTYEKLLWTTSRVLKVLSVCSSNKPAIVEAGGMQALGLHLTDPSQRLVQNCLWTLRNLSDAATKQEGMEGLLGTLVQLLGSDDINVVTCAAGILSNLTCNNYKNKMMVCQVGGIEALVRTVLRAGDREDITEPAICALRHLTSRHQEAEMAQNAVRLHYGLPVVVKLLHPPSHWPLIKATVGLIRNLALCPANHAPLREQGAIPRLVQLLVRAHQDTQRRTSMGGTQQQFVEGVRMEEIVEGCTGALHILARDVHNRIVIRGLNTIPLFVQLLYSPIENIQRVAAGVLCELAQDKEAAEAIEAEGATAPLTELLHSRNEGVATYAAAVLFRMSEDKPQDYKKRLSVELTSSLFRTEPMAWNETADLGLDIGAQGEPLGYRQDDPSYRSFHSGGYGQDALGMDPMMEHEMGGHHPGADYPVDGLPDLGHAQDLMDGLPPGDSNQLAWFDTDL
Procedure: as §2

[5] = biological target: T5, endogenous S37A mutant β-catenin (Homo sapiens, UniProt P35222+Q9Y297, S37A); test: Degradation of endogenous S37A β-catenin in TOV-112D cells; format: cell-based
T5 construct: host or cells: TOV-112D

[6] = biological target: T6, S33E/S37A β-catenin peptide binding to β-TrCP (Homo sapiens, UniProt P35222+Q9Y297, S33E/S37A); test: TR-FRET binding enhancement assay, S33E/S37A peptide; conditions: 1% binding saturation
T6 construct: titrating BODIPY-FL-labeled β-catenin peptides (residues 17-48) against 300 pM β-TrCP; 6xHis-SMT3 (N, cleaved yes); made in house; host or cells: E. coli (co-expressed with BirA)
T6 sequence (Q9Y297 1-569 isoform Q9Y297-2, stated change not applied): as the sequence (Q9Y297 1-569 isoform Q9Y297-2, stated change not applied) above
T6 sequence (P63208 whole entry partner, the tested form may be a part): as the sequence (P63208 whole entry partner, the tested form may be a part) above
T6 sequence (P35222 17-48 S33E/S37A limits assumed): as the sequence (P35222 17-48 S37A limits assumed) above, with S17E counted along it
Procedure: as §1

[7] = biological target: T6, S33E/S37A β-catenin peptide binding to β-TrCP; test: TR-FRET peptide binding assay, S33E/S37A peptide; conditions: read-out: binding affinity of S33E/S37A peptide
Procedure: as §1

[8] = biological target: T7, S33E/S37A mutant β-catenin (Homo sapiens, UniProt P35222+Q9Y297, S33E/S37A); test: β-catenin degradation in HEK293T cells stably expressing S33E/S37A β-catenin; format: cell-based; conditions: HEK293T stable line, 6 h, western
T7 construct: Full-length β-catenin (Myc/FLAG-tagged; Origene); expressed in transfected cells
Procedure: HEK293T cells were plated in a 10 cm dish in regular growth media (DMEM + 10% FBS) and allowed to adhere to the plate overnight. The following day, cells were transfected with S33E/S37 β-catenin using FuGeneHD transfection reagent. Transfected cells were then selected with media containing 700 μg/ml Geneticin. A pooled population of selected cells were used for all described experiments.
HEK293T cells expressing S33E/S37A β-catenin were plated in six-well plates at a density of 9 × 10^5 cells/well. The following day, cells were incubated with compounds diluted in regular growth media to the appropriate concentration. The final concentration of DMSO for all cell treatments was kept at 0.5% or less. Cell treatments with the Nedd8 inhibitor (MLN4924) and the proteasome inhibitor (MG132) were performed at a final concentration of 5 μM and 10 μM respectively. Cycloheximide treatment was performed at a final concentration of 100 μg/ml.

enhancement in PPI binding affinity ([1]; 20 μM NRX-252114): > 500 fold | Kd ([1]; read-out: binding affinity of non-phosphorylated peptide): 180 nM | enhancement of ubiquitylation of pSer33/S37A β-catenin peptide [2]: further enhances | interaction of S33E/S37A β-catenin with endogenous β-TrCP in cell lysate [3]: dose-dependent interaction | degradation of endogenous S37A mutant β-catenin [5]: did not induce degradation | EC50 [6]: 1100 ± 30 nM | Kd [7]: 6 nM | concentration at which degradation of S33E/S37A mutant β-catenin starts [8]: ~ 50 μM
Compound: N#Cc1cccc2c1CN(C(=O)c1c(Sc3c(Cl)cccc3Cl)cc(C(F)(F)F)[nH]c1=O)C2 [NRX-252114]
ubiquitylation of full-length Ser33/S37A β-catenin, comparison of enhancers [4]: higher degree of ubiquitylation than NRX-103094 | level of ubiquitylation of full-length Ser33/S37A β-catenin ([4]; 40 μM compound): approaches that of WT full-length protein
